In patent publication US6660774B2, “Use of (+)-tramadol, O-demethyltramadol or (+)-O-demethyl-tramadol, O-desmethyl-N-mono-desmethyl-tramadol or (+)- O-desmethyl-N-mono-desmethyltramadol” (Gruenethal GmbH, priority 1999, dated 2003):

Tested on: virgin, female Sprague-Dawley rats (bladder function)
Assay: Cystometric testing on conscious, virgin rats
Type: in vivo, rat
[1] = 1.0 mg/kg i.v., Diff.: change relative to the initial value
[2] = 1.0 mg/kg i.v., h: after administration, at maximum action
[3] = 1.0 mg/kg i.v., v: before administration (initial value)
[4] = 5.0 mg/kg i.v., Diff.: change relative to the initial value
[5] = 5.0 mg/kg i.v., h: after administration, at maximum action
[6] = 5.0 mg/kg i.v., v: before administration (initial value)
[7] = 10.0 mg/kg i.v., Diff.: change relative to the initial value
[8] = 10.0 mg/kg i.v., h: after administration, at maximum action
[9] = 10.0 mg/kg i.v., v: before administration (initial value)
[10] = 10.0 μg/kg i.t., Diff.: change relative to the initial value
[11] = 10.0 μg/kg i.t., h: after administration, at maximum action
[12] = 10.0 μg/kg i.t., v: before administration (initial value)

COc1cccc([C@@]2(O)CCCC[C@@H]2CN(C)C)c1 (racemic) [Tramadol, (1RS,2RS)-2-dimethylaminomethyl-1-(3-methoxyphenyl)cyclohexanol]
Basal pressure [1]: Diff.: +26%
Bladder capacity [1]: Diff.: −2%
Micturition pressure [1]: Diff.: −10%
Micturition volume [1]: Diff.: +27%
Residual volume [1]: Diff.: −89%
Threshold pressure [1]: Diff.: +50%
Basal pressure [2]: h: 11.34 ± 1.54 cm H2O
Bladder capacity [2]: h: 0.82 ± 0.09 ml
Micturition pressure [2]: h: 85 ± 6 cm H2O
Micturition volume [2]: h: 0.95 ± 0.08 ml
Residual volume [2]: h: 0.01 ± 0.005 ml
Threshold pressure [2]: h: 21.03 ± 3.10 cm H2O
Basal pressure [3]: v: 9.02 ± 1.12 cm H2O
Bladder capacity [3]: v: 0.84 ± 0.11 ml
Micturition pressure [3]: v: 94 ± 7 cm H2O
Micturition volume [3]: v: 0.75 ± 0.09 ml
Residual volume [3]: v: 0.09 ± 0.02 ml
Threshold pressure [3]: v: 14.0 ± 2.04 cm H2O
action on threshold pressure compared with 10 mg/kg of racemic tramadol (5 mg/kg): doubled
Basal pressure [4]: Diff.: +1%
Bladder capacity [4]: Diff.: +6%
Inter-contraction interval [4]: Diff.: −11%
Micturition pressure [4]: Diff.: −27%
Micturition volume [4]: Diff.: +42%
Residual volume [4]: Diff.: −73%
Threshold pressure [4]: Diff.: +37%
Basal pressure [5]: h: 9.30 ± 2.10 cm H2O
Bladder capacity [5]: h: 0.92 ± 0.08 ml
Micturition pressure [5]: h: 75 ± 10 cm H2O
Micturition volume [5]: h: 1.08 ± 0.09 ml
Residual volume [5]: h: 0.03 ± 0.01 ml
Threshold pressure [5]: h: 17.05 ± 2.33 cm H2O
Basal pressure [6]: v: 9.21 ± 1.35 cm H2O
Bladder capacity [6]: v: 0.87 ± 0.07 ml
Micturition pressure [6]: v: 103 ± 10 cm H2O
Micturition volume [6]: v: 0.76 ± 0.06 ml
Residual volume [6]: v: 0.11 ± 0.02 ml
Threshold pressure [6]: v: 12.45 ± 1.411 cm H2O
threshold pressure (in words) (10 mg/kg i.v.): distinct rise
Basal pressure [7]: Diff.: +40%
Bladder capacity [7]: Diff.: −18%
Inter-contraction interval [7]: Diff.: −40%
Micturition pressure [7]: Diff.: −11%
Micturition volume [7]: Diff.: +33%
Residual volume [7]: Diff.: −50%
Threshold pressure [7]: Diff.: +70%
Basal pressure [8]: h: 14.31 ± 1.89 cm H2O
Bladder capacity [8]: h: 0.78 ± 0.08 ml
Micturition pressure [8]: h: 66 ± 5 cm H2O
Micturition volume [8]: h: 1.13 ± 0.08 ml
Residual volume [8]: h: 0.05 ± 0.005 ml
Threshold pressure [8]: h: 25.50 ± 2.40 cm H2O
Basal pressure [9]: v: 10.21 ± 1.03 cm H2O
Bladder capacity [9]: v: 0.95 ± 0.06 ml
Micturition pressure [9]: v: 74 ± 5 cm H2O
Micturition volume [9]: v: 0.85 ± 0.05 ml
Residual volume [9]: v: 0.10 ± 0.02 ml
Threshold pressure [9]: v: 15.01 ± 1.32 cm H2O
ICI (in words) (most effective dose (10 mg/kg)): distinct reduction

CNCC1CCCCC1(O)c1cccc(O)c1 (single isomer, unassigned; (+)) [(+)-M5, (+)-O-desmethyl-N-mono-desmethyltramadol]
Basal pressure [10]: Diff.: −9%
Bladder capacity [10]: Diff.: +61%
Inter-contraction interval [10]: Diff.: +38%
Micturition pressure [10]: Diff.: −46%
Micturition volume [10]: Diff.: +36%
Residual volume [10]: Diff.: +162%
Threshold pressure [10]: Diff.: +46%
Basal pressure [11]: h: 4.25 ± 0.33 cm H2O
Bladder capacity [11]: h: 1.06 ± 0.06 ml
Inter-contraction interval [11]: h: 5.22 ± 0.27 min
Micturition pressure [11]: h: 43 ± 6 cm H2O
Micturition volume [11]: h: 0.72 ± 0.04 ml
Residual volume [11]: h: 0.34 ± 0.04 ml
Threshold pressure [11]: h: 10.25 ± 1.01 cm H2O
Basal pressure [12]: v: 4.68 ± 0.74 cm H2O
Bladder capacity [12]: v: 0.66 ± 0.05 ml
Inter-contraction interval [12]: v: 3.78 ± 0.35 min
Micturition pressure [12]: v: 80 ± 9 cm H2O
Micturition volume [12]: v: 0.53 ± 0.06 ml
Residual volume [12]: v: 0.13 ± 0.01 ml
Threshold pressure [12]: v: 7.0 ± 0.93 cm H2O
threshold pressure (in words) (10 mg/kg i.v.): distinct rise
interval between micturition (in words) (10.0 mg/kg i.v.): not shortened
Basal pressure [7]: Diff.: +4%
Bladder capacity [7]: Diff.: −18%
Inter-contraction interval [7]: Diff.: −12%
Micturition pressure [7]: Diff.: −23%
Micturition volume [7]: Diff.: +9%
Residual volume [7]: Diff.: −88%
Threshold pressure [7]: Diff.: +69%
Basal pressure [8]: h: 3.95 ± 0.35 cm H2O
Bladder capacity [8]: h: 0.72 ± 0.08 ml
Inter-contraction interval [8]: h: 4.30 ± 0.47 min
Micturition pressure [8]: h: 41 ± 3 cm H2O
Micturition volume [8]: h: 0.86 ± 0.10 ml
Residual volume [8]: h: 0.01 ± 0.002 ml
Threshold pressure [8]: h: 12.08 ± 1.47 cm H2O
Basal pressure [9]: v: 3.78 ± 0.26 cm H2O
Bladder capacity [9]: v: 0.88 ± 0.09 ml
Inter-contraction interval [9]: v: 4.92 ± 0.53 min
Micturition pressure [9]: v: 53 ± 4 cm H2O
Micturition volume [9]: v: 0.79 ± 0.09 ml
Residual volume [9]: v: 0.08 ± 0.01 ml
Threshold pressure [9]: v: 7.13 ± 0.47 cm H2O
bladder capacity (in words) (intrathecally): distinct increases
interval between micturition (in words) (intrathecally): distinct increases
threshold pressure (in words) (intrathecally): increase

COc1cccc(C2(O)CCCCC2CN(C)C)c1 (single isomer, unassigned; (-)) [(−)-Tramadol, (−)-tramadol, reference compound]
Basal pressure [4]: Diff.: +2%
Bladder capacity [4]: Diff.: −8%
Micturition pressure [4]: Diff.: −15%
Micturition volume [4]: Diff.: −6%
Residual volume [4]: Diff.: −17%
Threshold pressure [4]: Diff.: −3%
Basal pressure [5]: h: 4.20 ± 0.30 cm H2O
Bladder capacity [5]: h: 1.10 ± 0.09 ml
Micturition pressure [5]: h: 59 ± 3 cm H2O
Micturition volume [5]: h: 1.01 ± 0.09 ml
Residual volume [5]: h: 0.10 ± 0.02 ml
Threshold pressure [5]: h: 7.10 ± 0.44 cm H2O
Basal pressure [6]: v: 4.12 ± 0.40 cm H2O
Bladder capacity [6]: v: 1.19 ± 0.13 ml
Micturition pressure [6]: v: 69 ± 4 cm H2O
Micturition volume [6]: v: 1.07 ± 0.13 ml
Residual volume [6]: v: 0.12 ± 0.01 ml
Threshold pressure [6]: v: 7.32 ± 2.21 cm H2O
